Measurements: paper PMC11050087, “Polyphenols from Maackia amurensis Heartwood Protect Neuronal Cells from Oxidative Stress and Prevent Herpetic Infection” (International Journal of Molecular Sciences, 2024)
Values joined by “and” are separate entries in the source; they are usually repeats but may differ in a detail not shown here. Equal entries are not always repeated.

Experiments:
[1] = Cytotoxicity against Vero cells (MTT assay); format: cell-based; settings: African green monkey
Method: We prepared the stock solutions of the tested compounds (10 mg/mL) in DMSO (Sigma, St. Louis, MO, USA). For the MTT assay and further studies of anti-HSV-1 activity, we diluted the stock solutions with DMEM so that the final concentration of DMSO was 0.5%.
We used MTT assay to determine the cytotoxic effect of the tested compounds against Vero cells. We performed the MTT assay as previously described.

[2] = tested on: 6-OHDA-treated Neuro-2a cells; test: 6-OHDA-induced neurotoxicity model, cell viability test (MTT); format: cell-based, murine; settings: compounds at 10, 1, 0.1 µM; 6-OHDA 100 µM
[3] = tested on: HSV-1; test: Virucidal activity, RT-PCR assay (HSV-1 pretreated with compounds); format: cell-based, HSV-1 strain L2; settings: for Ct: 72 h; for −ΔCt: vs virus control; for activity at 0.1 µg/mL / activity at 1 µg/mL / activity at 10 µg/mL / log reduction at 0.1 µg/mL / log reduction at 1 µg/mL / log reduction at 10 µg/mL: Human alphaherpesvirus 1, 72 h; for activity at 0.1 µg/mL / activity at 1 µg/mL / activity at 10 µg/mL: read-out: 2^−ΔCt; for log reduction at 0.1 µg/mL / log reduction at 1 µg/mL / log reduction at 10 µg/mL: read-out: log10
[4] = tested on: HSV-1; test: Treatment of virus-infected cells with polyphenols, CPE inhibition assay; format: cell-based, HSV-1 strain L2; settings: for IC50: Human alphaherpesvirus 1, compound added after virus adsorption and penetration, CPE assay; for Treatment of Infected Cells SI: ratio of CC50 to IC50
Method: In order to study the mechanism of action of these compounds, two additional schemes of treatment of the virus and Vero cells with polyphenols were applied: the compounds were added before virus infection (pretreatment of cells) and after penetration of the virus into host cells (treatment of infected cells). The fourth method of exposure where the virus and polyphenols were added to cells simultaneously (simultaneous treatment) was previously described by us in [22]. The anti-HSV-1 activity of polyphenols was assessed using the cytopathic effect inhibition (CPE) assay.
The monolayer of cells was infected with the virus (100 TCID50/mL) at 37 °C for 1 h, and then the cells were washed with PBS (Sigma, Saint-Louis, MO, USA) and treated with different concentrations of the studied compounds and incubated until CPE appeared.

| Structure (SMILES) | CC50 [1] | effect on viability of 6-OHDA-treated Neuro-2a cells (in words) [2] | Ct ([3]; 0.1 µg/mL) | −ΔCt ([3]; 0.1 µg/mL) | Ct ([3]; 1 µg/mL) | −ΔCt ([3]; 1 µg/mL) | anti-HSV-1 activity by RT-PCR (in words) ([3]; 10 µg/mL) | Ct ([3]; 10 µg/mL) | −ΔCt ([3]; 10 µg/mL) | activity at 0.1 µg/mL [3] [%] | activity at 1 µg/mL [3] [%] | activity at 10 µg/mL [3] [%] | log reduction at 0.1 µg/mL [3] | log reduction at 1 µg/mL [3] | log reduction at 10 µg/mL [3] | virucidal activity against HSV-1 by RT-PCR (in words) ([3]; 0.1, 1 and 10 µg/mL) | inhibition of HSV-1 replication by RT-PCR (in words) ([3]; 1 µg/mL) | reduction in viral DNA ([3]; 10 µg/mL) [log10] | IC50 [4] | Treatment of Infected Cells SI [4] |
| --- | --- | --- | --- | --- | --- | --- | --- | --- | --- | --- | --- | --- | --- | --- | --- | --- | --- | --- | --- | --- |
| Oc1ccc(/C=C/c2cc(O)cc(O)c2)cc1 [Compound 1, resveratrol] | 123 µg/mL and 540 µM | did not cause any increase in the viability | 18.1 ± 2.2 | 0 | 20.4 ± 2.8 | −2.3 ± 0.2 | moderate anti-HSV-1 activity | 24.6 ± 2.9 | −6.5 ± 0.8 | 100 | 20.3 ± 2.4 | 1.1 ± 0.14 | 0 | 0.7 ± 0.09 | 1.9 ± 0.2 |  |  |  |  |  |
| O=C1C[C@@H](c2ccc(O)cc2)Oc2cc(O)ccc21 [Compound 6, liquiritigenin] |  |  |  |  |  |  |  |  |  |  |  |  |  |  |  | did not demonstrate virucidal activity |  |  |  |  |
| Oc1cc(O)cc(/C=C/c2ccc3c(c2)O[C@H](c2cc(O)cc(O)c2)[C@@H](c2ccc(O)c(O)c2)O3)c1 [Compound 9, maackin] |  | did not show significant activity | 18.6 ± 2.4 | −0.50 ± 0.05 | 25.9 ± 2.8 | −7.8 ± 0.9 |  | 33.3 ± 4.3 | −15.2 ± 1.8 | 70.7 ± 9.2 | 0.449 ± 0.06 | 0.00266 ± 0.0003 | 0.15 ± 0.02 | 2.3 ± 0.3 | 4.6 ± 0.6 |  | inhibited the replication of HSV-1 | 4.6 | 24.5 µg/mL and 50.4 µM | 11.0 ± 1.4 |
| Oc1ccc(/C=C/c2cc(O)cc3c2[C@H](c2cc(O)cc(O)c2)[C@@H](c2ccc(O)c(O)c2)O3)cc1 [Compound 13, scirpusin A] | 424 ± 50.1 µM |  | 18.6 ± 2.4 | −0.50 ± 0.05 | 25.8 ± 3.3 | −7.7 ± 0.8 |  | 31.2 ± 3.7 | −13.1 ± 1.6 | 70.7 ± 9.2 | 0.481 ± 0.06 | 0.0114 ± 0.001 | 0.15 ± 0.02 | 2.3 ± 0.3 | 3.9 ± 0.5 |  | inhibited the replication of HSV-1 | 3.9 | 20.2 µg/mL and 43 µM | 9.8 ± 1.2 |
